Measurements published in PMC6516660, “Construction of a pathway to C50-ε-carotene” (PLoS ONE, 2019).
Substitutions are numbered along the chain they refer to.

Tests used:
Assay in all cases: carotenoid production in E. coli, HPLC-PDA-MS
Assay type in all cases: cell-based
AtE (At-y2) [1] = target: T1, AtE (At-y2) (Arabidopsis thaliana, UniProt Q38932)
T1 construct: gene LUT2; full-length (transit peptide kept), pUCara plasmid, expressed in E. coli XL1-Blue with carotenoid pathway enzymes
T1 sequence (Q38932 1-524): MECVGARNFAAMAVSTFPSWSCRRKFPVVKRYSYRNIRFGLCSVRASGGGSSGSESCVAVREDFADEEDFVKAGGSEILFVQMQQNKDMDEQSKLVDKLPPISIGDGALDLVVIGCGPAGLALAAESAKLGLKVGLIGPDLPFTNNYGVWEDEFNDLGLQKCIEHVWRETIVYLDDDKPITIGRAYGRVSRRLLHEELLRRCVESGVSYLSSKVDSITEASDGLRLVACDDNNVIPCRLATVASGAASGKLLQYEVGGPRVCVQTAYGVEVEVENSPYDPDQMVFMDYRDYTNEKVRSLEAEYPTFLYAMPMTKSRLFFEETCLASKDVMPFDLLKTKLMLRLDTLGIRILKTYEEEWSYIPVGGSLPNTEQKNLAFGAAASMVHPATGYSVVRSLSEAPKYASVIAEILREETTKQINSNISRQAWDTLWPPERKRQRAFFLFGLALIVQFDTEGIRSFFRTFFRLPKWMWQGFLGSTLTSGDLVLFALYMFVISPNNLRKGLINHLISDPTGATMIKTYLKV

LsE = target: T2, LsE (Lactuca sativa, UniProt Q9AXK7); conditions: E. coli making C40-lycopene; product ε,ε-carotene
T2 construct: pUCara plasmid, expressed in E. coli XL1-Blue with carotenoid pathway enzymes
T2 sequence (Q9AXK7 1-533 limits assumed): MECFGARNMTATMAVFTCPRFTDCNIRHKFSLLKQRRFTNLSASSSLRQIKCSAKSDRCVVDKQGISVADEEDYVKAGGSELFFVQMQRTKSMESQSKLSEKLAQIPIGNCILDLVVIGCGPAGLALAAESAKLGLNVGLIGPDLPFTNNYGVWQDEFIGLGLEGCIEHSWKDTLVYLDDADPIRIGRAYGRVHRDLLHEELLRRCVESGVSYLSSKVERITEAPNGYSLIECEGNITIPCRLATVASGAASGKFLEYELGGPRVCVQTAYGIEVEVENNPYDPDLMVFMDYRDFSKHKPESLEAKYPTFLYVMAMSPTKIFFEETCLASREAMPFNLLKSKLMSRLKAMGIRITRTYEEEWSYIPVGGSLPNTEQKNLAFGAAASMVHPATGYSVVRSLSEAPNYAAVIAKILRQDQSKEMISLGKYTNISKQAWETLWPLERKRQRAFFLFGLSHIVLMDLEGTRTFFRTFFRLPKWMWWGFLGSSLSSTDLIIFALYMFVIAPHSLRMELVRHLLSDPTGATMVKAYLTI

AtE (At-y2) [2] = target: T3, AtE (At-y2) (Arabidopsis thaliana, UniProt Q38932, L448H); conditions: E. coli making C40-lycopene
T3 construct: gene LUT2; full-length (transit peptide kept), pUCara plasmid, expressed in E. coli XL1-Blue with carotenoid pathway enzymes
T3 sequence (Q38932 1-524 L448H): T1 sequence (Q38932 1-524) with L448H

CC(C)=CCC/C(C)=C/C=C/C(C)=C/C=C/C(C)=C/C=C/C(C)=C/C=C/C=C(C)/C=C/C=C(C)/C=C/C=C(C)/C=C/C=C(\C)CCC=C(C)C [C50-lycopene]
carotenoid production in E. coli, HPLC-PDA-MS (AtE (At-y2) [1]; E. coli making C50-lycopene, TB medium, L-arabinose induction, product C50-ε,ε-carotene): AtE cyclized both ends of the C50-lyopene (Fig 2C)

CC(C)=CCC/C(C)=C/C=C/C(C)=C/C=C/C(C)=C/C=C/C=C(C)/C=C/C=C(C)/C=C/C=C(\C)CCC=C(C)C [C40-lycopene]
carotenoid production in E. coli, HPLC-PDA-MS (AtE (At-y2) [1]; E. coli making C40-lycopene, product δ-carotene (ε,ψ-carotene)): this enzyme fully consumed its natural substrate C40-lycopene and yielded ε, ψ-carotene | carotenoid production in E. coli, HPLC-PDA-MS (LsE): LsE could equally and efficiently act on both sides of C40-lycopene (Fig 3B) | carotenoid production in E. coli, HPLC-PDA-MS (AtE (At-y2) [2]): very subtle effect (if not none) of L448H also in the natural C40 pathway
